Data: ChEMBL document CHEMBL1938244, “Synthesis, anticancer activity and apoptosis inducing ability of bisindole linked pyrrolo[2,1-c][1,4]benzodiazepine conjugates” (2012)
The source made the active and inactive calls. The rule behind the calls is not given here.

Key:
[1] = molecular target: Tubulin (Homo sapiens) (UniProt P68371+Q9H4B7+P0DPH7+P68366+Q13509+Q71U36+P04350+Q3ZCM7+P07437+P68363+Q9BQE3+Q6PEY2+Q13885+Q9BVA1+Q9BUF5); assay: Inhibition of tubulin polymerization in human MCF7 cells at 2 uM after 24 hrs by FITC-conjugated immunostaining assay; assay type: cell-based
[2] = system: MCF7; assay: Inhibition of HDAC1 protein expression in human MCF7 cells at 2 uM after 24 hrs by Western blotting; assay type: functional, cell-based
[3] = system: MCF7; assay: Inhibition of HDAC2 protein expression in human MCF7 cells at 2 uM after 24 hrs by Western blotting; assay type: functional, cell-based
[4] = system: MCF7; assay: Inhibition of HDAC3 protein expression in human MCF7 cells at 2 uM after 24 hrs by Western blotting; assay type: functional, cell-based
[5] = system: MCF7; assay: Inhibition of HDAC8 protein expression in human MCF7 cells at 2 uM after 24 hrs by Western blotting; assay type: functional, cell-based
[6] = system: MCF7; assay: Increase in p21 protein level in human MCF7 cells at 2 uM after 24 hrs by Western blotting; assay type: functional, cell-based
[7] = system: MCF7; assay: Induction of apoptosis in human MCF7 cells assessed as PARP-cleavage at 8 uM after 24 hrs by Western blot analysis; assay type: functional, cell-based
[8] = system: MCF7; assay: Induction of apoptosis in human MCF7 cells assessed as caspase-7 activation at 8 uM after 24 hrs by Western blot analysis; assay type: functional, cell-based
[9] = system: MCF7; assay: Anticancer activity against human MCF7 cells by SRB method; assay type: functional
[10] = system: A2780; assay: Anticancer activity against human A2780 cells by SRB method; assay type: functional
[11] = system: COLO 205; assay: Anticancer activity against human COLO205 cells by SRB method; assay type: functional
[12] = system: SiHa; assay: Anticancer activity against human SiHa cells by SRB method; assay type: functional
[13] = system: KB; assay: Anticancer activity against human KB cells by SRB method; assay type: functional
[14] = system: MCF7; assay: Anticancer activity against human MCF7 cells assessed as cell death at 2 uM after 24 hrs by MTT assay; assay type: functional
[15] = system: MCF7; assay: Induction of cell cycle arrest in human MCF7 cells assessed as accumulation of cells in G0 phase at 2 uM after 24 hrs by flow cytometry relative to untreated control; assay type: functional
[16] = system: MCF7; assay: Induction of cell cycle arrest in human MCF7 cells assessed as accumulation of cells in G1 phase at 2 uM after 24 hrs by flow cytometry relative to untreated control; assay type: functional
[17] = system: MCF7; assay: Induction of cell cycle arrest in human MCF7 cells assessed as accumulation of cells in S phase at 2 uM after 24 hrs by flow cytometry relative to untreated control; assay type: functional
[18] = system: MCF7; assay: Induction of cell cycle arrest in human MCF7 cells assessed as accumulation of cells in G2/M phase at 2 uM after 24 hrs by flow cytometry relative to untreated control; assay type: functional
[19] = system: MCF7; assay: Induction of cell cycle arrest in human MCF7 cells assessed as accumulation of cells in G0 phase at 4 uM after 24 hrs by flow cytometry relative to untreated control; assay type: functional
[20] = system: MCF7; assay: Induction of cell cycle arrest in human MCF7 cells assessed as accumulation of cells in G1 phase at 4 uM after 24 hrs by flow cytometry relative to untreated control; assay type: functional
[21] = system: MCF7; assay: Induction of cell cycle arrest in human MCF7 cells assessed as accumulation of cells in S phase at 4 uM after 24 hrs by flow cytometry relative to untreated control; assay type: functional
[22] = system: MCF7; assay: Induction of cell cycle arrest in human MCF7 cells assessed as accumulation of cells in G2/M phase at 4 uM after 24 hrs by flow cytometry relative to untreated control; assay type: functional
[23] = system: MCF7; assay: Induction of cell cycle arrest in human MCF7 cells assessed as accumulation of cells in G0 phase at 8 uM after 24 hrs by flow cytometry relative to untreated control; assay type: functional
[24] = system: MCF7; assay: Induction of cell cycle arrest in human MCF7 cells assessed as accumulation of cells in G1 phase at 8 uM after 24 hrs by flow cytometry relative to untreated control; assay type: functional
[25] = system: MCF7; assay: Induction of cell cycle arrest in human MCF7 cells assessed as accumulation of cells in S phase at 8 uM after 24 hrs by flow cytometry relative to untreated control; assay type: functional
[26] = system: MCF7; assay: Induction of cell cycle arrest in human MCF7 cells assessed as accumulation of cells in G2/M phase at 8 uM after 24 hrs by flow cytometry relative to untreated control; assay type: functional
[27] = system: MCF7; assay: Induction of cell cycle arrest in human MCF7 cells assessed as accumulation of cells in G0 phase at 2 uM after 24 hrs by flow cytometry (reference value: 2.9%); assay type: functional
[28] = system: MCF7; assay: Induction of cell cycle arrest in human MCF7 cells assessed as accumulation of cells in G1 phase at 2 uM after 24 hrs by flow cytometry (reference value: 46%); assay type: functional
[29] = system: MCF7; assay: Induction of cell cycle arrest in human MCF7 cells assessed as accumulation of cells in S phase at 2 uM after 24 hrs by flow cytometry (reference value: 14.87%); assay type: functional
[30] = system: MCF7; assay: Induction of cell cycle arrest in human MCF7 cells assessed as accumulation of cells in G2/M phase at 2 uM after 24 hrs by flow cytometry (reference value: 36.23%); assay type: functional
[31] = system: MCF7; assay: Induction of cell cycle arrest in human MCF7 cells assessed as accumulation of cells in G0 phase at 4 uM after 24 hrs by flow cytometry (reference value: 3.22%); assay type: functional
[32] = system: MCF7; assay: Induction of cell cycle arrest in human MCF7 cells assessed as accumulation of cells in G1 phase at 4 uM after 24 hrs by flow cytometry (reference value: 65.58%); assay type: functional
[33] = system: MCF7; assay: Induction of cell cycle arrest in human MCF7 cells assessed as accumulation of cells in S phase at 4 uM after 24 hrs by flow cytometry (reference value: 5.55%); assay type: functional
[34] = system: MCF7; assay: Induction of cell cycle arrest in human MCF7 cells assessed as accumulation of cells in G2/M phase at 4 uM after 24 hrs by flow cytometry (reference value: 25.65%); assay type: functional
[35] = system: MCF7; assay: Induction of cell cycle arrest in human MCF7 cells assessed as accumulation of cells in G0 phase at 8 uM after 24 hrs by flow cytometry (reference value: 3.22%); assay type: functional
[36] = system: MCF7; assay: Induction of cell cycle arrest in human MCF7 cells assessed as accumulation of cells in G1 phase at 8 uM after 24 hrs by flow cytometry (reference value: 65.58%); assay type: functional
[37] = system: MCF7; assay: Induction of cell cycle arrest in human MCF7 cells assessed as accumulation of cells in S phase at 8 uM after 24 hrs by flow cytometry (reference value: 5.55%); assay type: functional
[38] = system: MCF7; assay: Induction of cell cycle arrest in human MCF7 cells assessed as accumulation of cells in G2/M phase at 8 uM after 24 hrs by flow cytometry (reference value: 25.65%); assay type: functional

Row | GI50 [9] | GI50 [10] | GI50 [11] | SMILES | inhibition [1] | inhibition [2] | inhibition [3] | inhibition [4] | inhibition [5] | Activity [7] | Activity [8] | Activity [14] | Activity [15] | Activity [16] | Activity [17] | Activity [18] | Activity [19] | Activity [20] | Activity [21] | Activity [22] | Activity [23] | further results
1 | 2.01 µM | 2.29 µM | 2.3 µM | COc1cc2c(cc1OCCCCCCOc1cccc(C(c3c[nH]c4ccccc34)c3c[nH]c4ccccc34)c1)N=C[C@@H]1CCCN1C2=O | – | – | – | – | – | – | – | – | – | – | – | – | – | – | – | – | – | GI50 [12]: 30.8 µM; GI50 [13]: 30.1 µM
2 | 2.01 µM | 27 µM | 28.5 µM | COc1cc2c(cc1OCCCCOc1cccc(C(c3c[nH]c4ccccc34)c3c[nH]c4ccccc34)c1)N=C[C@@H]1CCCN1C2=O | – | – | – | – | – | – | – | – | – | – | – | – | – | – | – | – | – | –
3 | – | – | – | Oc1ccc(C(c2c[nH]c3ccccc23)c2c[nH]c3ccccc23)cc1 | Active | Active | Active | Active | Active | Active | Active | Active | 3.16% | 53.85% | 9.26% | 33.7% | 5.01% | 49.65% | 9.78% | 35.56% | 7.05% | Activity [24]: 46.19%; Activity [25]: 8.99%; Activity [26]: 37.97%; Activity [27]: 3%; Activity [28]: 54%; Activity [29]: 9%; Activity [30]: 34%; Activity [31]: 5%; Activity [32]: 50.97%; Activity [33]: 9.34%; Activity [34]: 34.69%; Activity [35]: 7%; Activity [36]: 47.59%; Activity [37]: 8.97%; Activity [38]: 36.44%
4 | – | – | – | Oc1cccc(C(c2c[nH]c3ccccc23)c2c[nH]c3ccccc23)c1 | Active | Active | Active | Active | Active | Active | Active | Active | 2.8% | 51.23% | 9.86% | 36.03% | 3.63% | 50.56% | 9.41% | 36.3% | 6.03% | Activity [24]: 45.99%; Activity [25]: 10.02%; Activity [26]: 37.97%; Activity [27]: 2.9%; Activity [28]: 50%; Activity [29]: 10.1%; Activity [30]: 37%; Activity [31]: 4%; Activity [32]: 50.68%; Activity [33]: 9.24%; Activity [34]: 36.08%; Activity [35]: 6%; Activity [36]: 46.98%; Activity [37]: 9.08%; Activity [38]: 37.93%

Row | SMILES | GI50 [9] | GI50 [10] | GI50 [11] | inhibition [1] | inhibition [2] | inhibition [3] | inhibition [4] | inhibition [5] | Activity [7] | Activity [8] | Activity [14] | Activity [15] | Activity [16] | Activity [17] | Activity [18] | Activity [19] | Activity [20] | Activity [21] | Activity [22] | Activity [23] | further results
5 | COc1cc2c(cc1OCCCCCOc1cccc(C(c3c[nH]c4ccccc34)c3c[nH]c4ccccc34)c1)N=C[C@@H]1CCCN1C2=O | 0.19 µM | 0.18 µM | 0.16 µM | Active | Active | Active | Active | Active | Active | Active | 50% | 2.98% | 38.86% | 15.42% | 42.67% | 10.7% | 70.29% | 8.26% | 10.74% | 24.81% | Activity [6]: Active; GI50 [12]: 2.2 µM; GI50 [13]: 2.3 µM; Activity [24]: 60.92%; Activity [25]: 5.26%; Activity [26]: 8.99%; Activity [27]: 3.47%; Activity [28]: 39.36%; Activity [29]: 14.56%; Activity [30]: 42.61%; Activity [31]: 10.4%; Activity [32]: 71.85%; Activity [33]: 8.67%; Activity [34]: 9.08%; Activity [35]: 24.25%; Activity [36]: 61.55%; Activity [37]: 4.82%; Activity [38]: 9.38%
